Source: US4177282A, “Hydantoin therapeutic agents” (priority 1978, dated 1979)
Where a name gives a salt, the structure may show the parent alone.

Key:
[1] = tested on: sorbitol accumulation in the sciatic nerve of streptozotocinized (i.e., diabetic) rats; experiment: inhibition of sorbitol accumulation in the sciatic nerve of streptozotocinized (diabetic) rats; assay type: in vivo, rat; settings: measured at 27 hours, vs untreated
Protocol: (§1) The activity of the compounds of the present invention, as agents for the control of chronic diabetic complications, is determined by their ability to successfully pass one or more of the following standard biological and/or pharmacological tests, viz., (1) measuring their ability to inhibit the enzyme activity of isolated aldose reductase; (2) measuring their ability to reduce or inhibit sorbitol accumulation in the sciatic nerve of acutely streptozotocinized (i.e., diabetic) rats; (3) measuring their ability to reverse alredy-elevated sorbitol levels in the sciatic nerve and lens of chronic streptozotocin-induced diabetic rats; (4) measuring their ability to prevent or inhibit galactitol formation in the lens of acutely galactosemic rats, and (5) measuring their ability to delay cataract formation and reduce the severity of lens opacities in chronic galactosemic rats.
The following spiro-hydantoin compounds of Preparations B and C and Examples I-II, respectively, were tested for their ability to reduce or inhibit sorbitol accumulation in the sciatic nerve of streptozotocinized (i.e., diabetic) rats by the procedure essentially described in U.S. Pat. No. 3,821,383. In the present study, the amount of sorbitol accumulation in the sciatic nerves was measured 27 hours after induction of diabetes. The compounds were administered orally at the dose levels indicated 4, 8 and 24 hours following the administration of streptozotocin. The results obtained in this manner are presented below in terms of percent inhibition (%) afforded by the test compound as compared to the case where no compound was administered (i.e., the untreated animal where sorbitol levels normally rise from approximately 50-100 mM/g. tissue to as high as 400 mM/g. tissue in the 27-hour test period): […]

[2] = molecular target: T1, partially purified aldose reductase enzyme obtained from calf lens (Bos taurus, UniProt P16116); experiment: inhibition of isolated aldose reductase enzyme activity (procedure of S. Hayman et al., as modified by K. Sestanj et al.); assay type: biochemical; settings: for inhibition at 100 µM / inhibition at 10 µM / inhibition at 1 µM / inhibition at 0.1 µM / Percent Inhibition (%) of aldose reductase enzyme activity: calf lens enzyme; for inhibition at 100 µM / inhibition at 10 µM / inhibition at 1 µM / inhibition at 0.1 µM: read-out: Percent Inhibition (%) of aldose reductase enzyme activity
T1 construct: partially purified aldose reductase enzyme obtained from calf lens; from tissue; host or cells: calf lens
Protocol: as §1
In every case, the substrate employed was partially purified aldose reductase enzyme obtained from calf lens.

[3] = tested on: sorbitol levels in the sciatic nerve and lens of diabetic subjects; experiment: lowering of sorbitol levels in the sciatic nerve and lens of diabetic subjects; assay type: in vivo, rat
Protocol: as §1

[4] = tested on: sorbitol levels in diabetic rats; experiment: control (inhibition) of formation of sorbitol levels in diabetic rats, oral; assay type: in vivo, rat; settings: 0.25 mg./kg. to 5.0 mg./kg.
Source text: As previously indicated, the dextrorotatory spiro-hydantoin compounds of this invention are all readily adapted to therapeutic use as aldose reductase inhibitors for the control of chronic diabetic complications, in view of their ability to reduce lens sorbitol levels in diabetic subjects to a statistically significant degree. […] The other compounds of this invention also cause similar results. Furthermore, the herein described compounds of this invention can be administered by either the oral or parenteral routes of administration, for the present purposes at hand, without causing any significant untoward pharmacological side reactions to occur in the subject to whom they are so administered. In general, these compounds are ordinarily administered in dosages ranging from about 0.05 mg. to about 5.0 mg. per kg. of body weight per day, although variations will necessarily occur depending upon the weight and condition of the subject being treated and the particular route of administration chosen.

[5] = tested on: galactitol levels in the lens of galactosemic subjects; experiment: lowering of galactitol levels in the lens of galactosemic subjects; assay type: in vivo, rat
Protocol: as §1

solubility in water = assay type: physicochemical; settings: amorphous powder, freeze-dried
[6] = 0.25 mg./kg. orally at 4, 8 and 24 hours after streptozotocin
[7] = 0.75 mg./kg. orally at 4, 8 and 24 hours after streptozotocin
[8] = 1.5 mg./kg. orally at 4, 8 and 24 hours after streptozotocin
[9] = 2.5 mg./kg. orally at 4, 8 and 24 hours after streptozotocin

Q: Which “Percent Inhibition (%) of sorbitol accumulation in the sciatic nerve” value (“Percent Inhibition (%) … in the sciatic nerve” for short) [1, 6] does the source give for `O=C1NC(=O)C2(CCOc3ccc(F)cc32)N1` (racemic) [dl-Cpd. of Prep. B, dl-6-fluoro-spiro-[chroman-4,4'-imidazolidine]-2',5'-dione] here?
A: 19%

Q: What about the “Percent Inhibition (%) … in the sciatic nerve” value [1, 7] of the same compound?
A: 45%

Q: And the “Percent Inhibition (%) … in the sciatic nerve” value [1, 8]?
A: 72%

Q: What about the inhibition at 100 µM ([2]; 10^-4 M) of the same compound?
A: 85%

Q: And the inhibition at 10 µM ([2]; 10^-5 M)?
A: 58%

Q: What about the inhibition at 1 µM ([2]; 10^-6 M) of the same compound?
A: 52%

Q: And the inhibition at 0.1 µM ([2]; 10^-7 M)?
A: 3%

Q: With `O=C1NC(=O)C2(CCSc3ccc(F)cc32)N1` (racemic) [dl-Cpd. of Prep. C, dl-6'-fluoro-spiro-[imidazolidine-4,4'-thiochroman]-2,5-dione] as the compound, how does the “Percent Inhibition (%) … in the sciatic nerve” value [1, 7] read?
A: 13%

Q: And the “Percent Inhibition (%) … in the sciatic nerve” value [1, 8]?
A: 45%

Q: And the “Percent Inhibition (%) … in the sciatic nerve” value [1, 9]?
A: 74%

Q: And the inhibition at 100 µM ([2]; 10^-4 M)?
A: 81%

Q: What about the inhibition at 10 µM ([2]; 10^-5 M) of the same compound?
A: 77%

Q: And the inhibition at 1 µM ([2]; 10^-6 M)?
A: 66%

Q: What about the inhibition at 0.1 µM ([2]; 10^-7 M) of the same compound?
A: 38%

Q: For `O=C1NC(=O)C2(CCOc3ccc(F)cc32)N1` (single isomer, unassigned) [1-Isomer of Ex. I, l-6-fluoro-spiro-[chroman-4,4'-imidazolidine]-2',5'-dione], which “Percent Inhibition (%) … in the sciatic nerve” value [1, 7] is on record?
A: 19%

Q: And the “Percent Inhibition (%) … in the sciatic nerve” value [1, 9]?
A: 6%

Q: What about the “Percent Inhibition (%) … in the sciatic nerve” value ([1]; 5.0 mg./kg. orally at 4, 8 and 24 hours after streptozotocin) of the same compound?
A: 22%

Q: And the “Percent Inhibition (%) of aldose reductase enzyme activity” value ([2]; 10^-4 M)?
A: 88%

Q: And the “Percent Inhibition (%) of aldose reductase enzyme activity” value ([2]; 10^-5 M)?
A: 63%

Q: What about the “Percent Inhibition (%) of aldose reductase enzyme activity” value ([2]; 10^-6 M) of the same compound?
A: 23%

Q: And the “Percent Inhibition (%) of aldose reductase enzyme activity” value ([2]; 10^-7 M)?
A: -4%

Q: What does the source list for `O=C1NC(=O)C2(CCSc3ccc(F)cc32)N1` (single isomer, unassigned) [1-Isomer of Ex. II, l-6'-fluoro-spiro-[imidazolidine-4,4'-thiochroman]-2,5-dione]?
A: Percent Inhibition (%) of aldose reductase enzyme activity ([2]; 10^-4 M): 87%; Percent Inhibition (%) of aldose reductase enzyme activity ([2]; 10^-5 M): 65%; Percent Inhibition (%) of aldose reductase enzyme activity ([2]; 10^-6 M): 11%; Percent Inhibition (%) of aldose reductase enzyme activity ([2]; 10^-7 M): 10%

Q: Which results are given for `O=C1NC(=O)C2(CCOc3ccc(F)cc32)N1` (single isomer, unassigned) [d-Isomer of Ex. I, d-6-fluoro-spiro-[chroman-4,4'-imidazolidine]-2',5'-dione]?
A: lowering sorbitol levels in the sciatic nerve and lens (in words) [3]: equally effective in lowering sorbitol levels in the sciatic nerve and lens of diabetic subjects; control (i.e., inhibit) the formation of sorbitol levels (in words) [4]: to a significantly high degree; Percent Inhibition (%) of sorbitol accumulation in the sciatic nerve [1, 6]: 47%; Percent Inhibition (%) of sorbitol accumulation in the sciatic nerve [1, 7]: 78%; aldose reductase inhibitory activity (in words) [2]: extremely potent; inhibition at 100 µM ([2]; 10^-4 M): 100%; Percent Inhibition (%) of aldose reductase enzyme activity ([2]; 10^-6 M): 98%; Percent Inhibition (%) of aldose reductase enzyme activity ([2]; 10^-7 M): 39%; lowering galactitol levels in the lens (in words) [5]: to a very significantly high degree

Q: Which “lowering sorbitol levels in the sciatic nerve and lens (in words)” value [3] does the source give for `O=C1NC(=O)C2(CCSc3ccc(F)cc32)N1` (single isomer, unassigned) [d-Isomer of Ex. II, d-6'-fluoro-spiro-[imidazolidine-4,4'-thiochroman]-2,5-dione] here?
A: equally effective in lowering sorbitol levels in the sciatic nerve and lens of diabetic subjects

Q: And the “Percent Inhibition (%) … in the sciatic nerve” value [1, 7]?
A: 55%

Q: And the “aldose reductase inhibitory activity (in words)” value [2]?
A: extremely potent

Q: And the inhibition at 100 µM ([2]; 10^-4 M)?
A: 89%

Q: What about the inhibition at 10 µM ([2]; 10^-5 M) of the same compound?
A: 80%

Q: And the “Percent Inhibition (%) of aldose reductase enzyme activity” value ([2]; 10^-6 M)?
A: 76%

Q: What about the “Percent Inhibition (%) of aldose reductase enzyme activity” value ([2]; 10^-7 M) of the same compound?
A: 74%

Q: And the “lowering galactitol levels in the lens (in words)” value [5]?
A: to a very significantly high degree

Q: For `O=C1NC(=O)C2(CCOc3ccc(F)cc32)N1` (single isomer, unassigned) [sodium salt of d-6-fluoro-spiro-[chroman-4,4'-imidazolidine]-2',5'-dione], which “solubility in water (in words)” value (solubility in water) is on record?
A: freely soluble in water
